Patent US10358439B2, “DNA binding agents with a minor groove binding tail” (Board of Regents, The University of Texas System, priority 2015, dated 2019)
Read-outs that look alike come from different tables or passages of the source.

Columns and labels:
[1] = system: Colo357-FG; assay: in vitro antitumor activity, Colo357-FG; format: cell-based; settings: Colo357-FG cells
[2] = system: U87; assay: in vitro antitumor activity, U87; format: cell-based; settings: U87 (U87-MG brain tumor) cells
[3] = system: H441; assay: in vitro antitumor activity, H441; format: cell-based; settings: H441 cells
[4] = in vitro IC50, cells not stated; format: cell-based; settings: cell lines not stated
[5] = acute clinically observable toxicity after IV bolus; format: in vivo; settings: mice, 10 mg/kg intravenous bolus, up to 24 hours following dosing
Method: (§1) Mouse Plasma PK and Brain Distribution Study following Single IV Dose—WP1244 was administered intravenously by rapid IV push to 55 male CD1 mice (Charles River Lab, Wilmington, Mass.) at a dose of 10 mg/kg. Each mouse (mean weight 22.0 g, range 20.7-26.6 g) was given a volume of 0.1 mL of a 2.2 mg/mL WP1244 solution formulated in DMSO:water (50:50, v/v). Five animals were assigned to one of 11 groups segregated by time, spanning the length of the 24-hour study period. One cohort of animals was sacrificed at each of the following time points and mouse plasma and tissues of interest, were harvested for analysis. The time points were as follows: 5, 15, 30, 45 minutes, 1, 2, 4, 6, 8, 12, and 24 hours following administration by intravenous bolus. Samples (plasma and tissues) were frozen and stored at −80° C. until subsequent analysis by LC/MS/MS.

[6] = Mouse Plasma PK and Brain Distribution Study following Single IV Dose; format: in vivo, male CD1 mice; parameters: Mean peak plasma concentration / area-under-the-curve: unit not given here; settings: mice, 10 mg/kg IV; for Kp / Vd: iv, 10 mg/kg
Method: as §1
Sample preparation and drug isolation (extraction) from plasma utilized the same fundamental approach used in pharmacokinetic and biodistribution studies of other anthracyclines previously conducted by the inventors. Briefly, WP1244 was extracted from a volume (0.1 mL) of mouse plasma using a solid-phase extraction method. Liquid-liquid extraction by a chloroform: 2-propanol (80:20, v/v) mixture was utilized to isolate the analyte from mouse brain tissue. An 8-point plasma extracted calibration curve was created to span a dynamic concentration range of WP1244 of 1-1000 ng/mL (1, 2.5, 10, 25, 50, 100, 500, and 1000 ng/mL) for the quantitative measurement of WP1244 extracted from mouse plasma, while a brain tissue derived calibration curve was utilized for determination of brain tissue concentrations of drug over a range of 10-1000 ng/g tissue. Samples exceeding the dynamic range of the calibration curve were re-analyzed following dilution in extraction buffers.
Quantitative sample analysis was performed by chromatographic separation and identification/quantification using mass spectrometry (LC/MS/MS); the specific instrumentation used was an Agilent HP1100 Series liquid chromatograph in tandem with a Micromass Quattro Micro (Micro2) mass spectrometer. A Phenomenex® Luna C5, 4.6×50 mm, 3.5 μm) analytical column was used for chromatographic separation and peak resolution. As mentioned before, sample analysis utilized the same fundamental validated methods developed previously for the quantitative analysis of other anthracyclines studied by the inventors.

[7] = 5-mice pilot single-dose pharmacokinetic study, plasma and brain; format: in vivo; settings: mouse, iv, 5 mg/kg, one hour following a single ~5 mg/kg intravenous dose
Method: WP1244 has a relatively high molecular weight (MW) (981.3) having a polyamide moiety attached to the amino sugar. A previous 5-mice pilot study performed with WP1244 confirmed the presence of WP1244 in murine brain tissue, and mean normalized concentrations in the plasma and brain were 283+/−128 ng/mL (range 159-487 ng/mL) and 122+/−67.6 ng/g (range 43-203 ng/g), respectively, one hour following a single ˜5 mg/kg intravenous dose. This pilot single-dose pharmacokinetic study was followed by a complete single-dose pharmacokinetic/biodistribution study which was designed to better elucidate the plasma time-course and tissue biodistribution, particularly in brain tissue, of WP1244. This study involve the use of 55 animals and a dose of 10 mg/kg. The experiment was conducted over a 24 h interval and the methods and results are outlined below.

[8] = system: D54; assay: in vitro antitumor activity, D54; format: cell-based; settings: D54 cells

## COc1cccc2c1C(=O)c1c(O)c3c(c(O)c1C2=O)C[C@@](O)(C(C)=O)C[C@H]3OC1CC(NC(=O)c2cc(NC(=O)c3cc(NC(=O)c4cccn4C)cn3C)cn2C)C(O)C(C)O1 (stereo in doubt) [WP1277]
[1]; COLO 357/FG
  IC50: 4240 nM
[2]; Homo sapiens, U-87 MG
  IC50: 105 nM

## COc1cccc2c1C(=O)c1c(O)c3c(c(O)c1C2=O)C[C@](O)(C(C)=O)C[C@H]3OC1CC(NCc2ccc(NC(=O)c3cc(NC(=O)c4cc(NC(=O)c5ccccn5)cn4C)cn3C)cc2)C(O)C(C)O1 (stereo partly shown) [WP1244]
[3]; Homo sapiens, NCI-H441
  IC50: 0.91 nM
[1]; COLO 357/FG
  IC50: 3.1 nM
[4]
  in vitro IC50 values: subnanomolar range
[2]; Homo sapiens, U-87 MG
  IC50: 0.2 nM
[5]
  acute clinically observable toxicity: no acute clinically observable toxicity
[6]; male, CD1, mouse, brain, 0 to 8 hour interval, read-out: fold higher concentration in brain tissue than plasma
  Kp: 3 to 4
[6]; male, CD1, mouse, brain, over the measured interval (except 5 min timepoint), read-out: brain tissue to plasma concentration ratio
  Kp: > 1
[6]; male, CD1, mouse, brain, at 24 hours, read-out: nadir brain tissue concentration
  concentration at 24 h: > 100 ng/g
[6]; male, CD1, mouse, plasma, 2-compartment model, read-out: volume of distribution Vc
  Vd: 0.0097 L/kg
[6]; male, CD1, mouse, plasma, 2-compartment model, read-out: volume of distribution Vp
  Vd: 0.326 L/kg
[6]; male, CD1, mouse, plasma, 2-compartment model, read-out: volume of distribution Vss
  Vd: 0.336 L/kg
[6]; male, CD1, mouse, plasma, 2-compartment model, read-out: Drug clearance (converted)
  clearance: 0.683 mL/min/kg
[6]; male, CD1, mouse, plasma, 24 hours after IV bolus injection, read-out: mean nadir plasma concentration
  concentration at 24 h: 21.5 ng/mL
[6]; at 15 minutes post dose
  mean peak concentration in brain tissue: 915 ng/g tissue
[6]; five minutes after drug administration
  Mean peak plasma concentration: 3.7
[6]; plasma
  area-under-the-curve: 250
[6]; post dose
  time of peak concentration in brain tissue: 15 min
[7]; brain, read-out: mean normalized concentration in brain
  concentration at 1 h: 122 ng/g
[7]; brain, read-out: range of normalized concentration in brain
  concentration at 1 h: 43 to 203 ng/g
[7]; plasma, read-out: mean normalized concentration in plasma
  concentration at 1 h: 283 ng/mL
[7]; plasma, read-out: range of normalized concentration in plasma
  concentration at 1 h: 159 to 487 ng/mL
[8]; Homo sapiens
  IC50: 1.08 nM

## COc1cccc2c1C(=O)c1c(O)c3c(c(O)c1C2=O)C[C@](O)(C(C)=O)C[C@H]3OC1CC(NCc2ccc(NC(=O)c3cc(NC(=O)c4cc(NC(=O)c5cc(NC=O)cn5C)cn4C)cn3C)cc2)C(O)C(C)O1 (stereo in doubt) [WP1249]
[1]; COLO 357/FG
  IC50: 51.2 nM
[2]; Homo sapiens, U-87 MG
  IC50: 7.7 nM

## COc1cccc2c1C(=O)c1c(O)c3c(c(O)c1C2=O)C[C@](O)(C(C)=O)C[C@H]3OC1CC(NCc2ccc(NC(=O)c3cc(NC(=O)c4cc(NC(=O)c5cc([N+](=O)[O-])cn5C)cn4C)cn3C)cc2)C(O)C(C)O1 (stereo in doubt) [WP1276]
[1]; COLO 357/FG
  IC50: 443 nM
[2]; Homo sapiens, U-87 MG
  IC50: 27.8 nM

## COc1cccc2c1C(=O)c1c(O)c3c(c(O)c1C2=O)C[C@@](O)(C(C)=O)C[C@@H]3O[C@H]1C[C@H](N)[C@H](O)[C@H](C)O1 [DNR, reference compound]
[3]
  IC50: 15.9 nM
[1]
  IC50: 46.4 nM
[2]
  IC50: 143 nM
[8]
  IC50: 231 nM

## COc1cccc2c1C(=O)c1c(O)c3c(c(O)c1C2=O)C[C@](O)(C(C)=O)C[C@H]3OC1CC(NCc2ccc(NC(=O)c3cc(NC(=O)c4cc(NC(=O)c5cccn5C)cn4C)cn3C)cc2)C(O)C(C)O1 (stereo in doubt) [WP1243]
[1]; COLO 357/FG
  IC50: 76.2 nM
[2]; Homo sapiens, U-87 MG
  IC50: 8.3 nM
